Test results as given in ChEMBL document CHEMBL4507265 (2021).

Legend:
[1] = molecular target: Serine/threonine-protein kinase 25 (Homo sapiens) (UniProt O00506); details: Compound concentration 1000.0 nM
[2] = molecular target: Phosphatidylinositol 5-phosphate 4-kinase type-2 gamma (Homo sapiens) (UniProt Q8TBX8); details: Compound concentration 1000.0 nM
[3] = molecular target: Ephrin type-A receptor 4 (Homo sapiens) (UniProt P54764); details: Compound concentration 1000.0 nM
[4] = system: Tyrosine-protein kinase ABL1 (Homo sapiens), P00519 [T315I]; details: Compound concentration 1000.0 nM
[5] = molecular target: Casein kinase I isoform gamma-2 (Homo sapiens) (UniProt P78368); details: Compound concentration 1000.0 nM
[6] = molecular target: Mitogen-activated protein kinase kinase kinase kinase 3 (Homo sapiens) (UniProt Q8IVH8); details: Compound concentration 1000.0 nM
[7] = molecular target: Mitogen-activated protein kinase kinase kinase 19 (Homo sapiens) (UniProt Q56UN5); details: Compound concentration 1000.0 nM
[8] = molecular target: T1, Muscarinic acetylcholine receptor M2 (Homo sapiens) (UniProt P08172); details: Compound concentration 10.0 uM
T1 sequence (whole entry): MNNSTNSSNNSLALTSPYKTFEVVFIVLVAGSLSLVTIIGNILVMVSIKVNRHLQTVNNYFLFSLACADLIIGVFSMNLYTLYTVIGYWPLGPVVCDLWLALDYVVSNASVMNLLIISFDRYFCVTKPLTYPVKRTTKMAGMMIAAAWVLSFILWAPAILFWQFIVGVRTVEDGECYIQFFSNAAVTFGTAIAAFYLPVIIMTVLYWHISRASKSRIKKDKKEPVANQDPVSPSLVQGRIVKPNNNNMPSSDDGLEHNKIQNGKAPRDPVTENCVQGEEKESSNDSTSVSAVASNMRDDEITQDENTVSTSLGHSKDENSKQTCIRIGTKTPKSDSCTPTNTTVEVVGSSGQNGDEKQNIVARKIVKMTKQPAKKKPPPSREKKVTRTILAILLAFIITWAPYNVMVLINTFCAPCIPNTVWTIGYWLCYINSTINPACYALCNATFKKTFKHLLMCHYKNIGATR

[9] = molecular target: Dual specificity mitogen-activated protein kinase kinase 2 (Homo sapiens) (UniProt P36507); details: Compound concentration 1000.0 nM
[10] = molecular target: Tyrosine-protein kinase Fes/Fps (Homo sapiens) (UniProt P07332); details: Compound concentration 1000.0 nM
[11] = molecular target: Calcium/calmodulin-dependent protein kinase type 1G (Homo sapiens) (UniProt Q96NX5); details: Compound concentration 1000.0 nM
[12] = molecular target: Ephrin type-A receptor 8 (Homo sapiens) (UniProt P29322); details: Compound concentration 1000.0 nM
[13] = molecular target: RAC-gamma serine/threonine-protein kinase (Homo sapiens) (UniProt Q9Y243); details: Compound concentration 1000.0 nM
Rattus norvegicus = species on record: Rattus norvegicus; details: Compound concentration 10.0 uM
[14] = molecular target: SNF-related serine/threonine-protein kinase (Homo sapiens) (UniProt Q9NRH2); details: Compound concentration 1000.0 nM
[15] = molecular target: Vascular endothelial growth factor receptor 1 (Homo sapiens) (UniProt P17948); details: Compound concentration 1000.0 nM
[16] = molecular target: Epithelial discoidin domain-containing receptor 1 (Homo sapiens) (UniProt Q08345); details: Compound concentration 1000.0 nM
[17] = molecular target: Tyrosine-protein kinase Lck (Homo sapiens) (UniProt P06239); details: Compound concentration 1000.0 nM
[18] = molecular target: Calcium-dependent protein kinase 1 (Plasmodium falciparum) (UniProt P62344); details: Compound concentration 1000.0 nM
[19] = molecular target: Inhibitor of nuclear factor kappa-B kinase subunit epsilon (Homo sapiens) (UniProt Q14164); details: Compound concentration 1000.0 nM
[20] = system: Receptor-type tyrosine-protein kinase FLT3 (Homo sapiens), P36888 [UNDEFINED MUTATION]; details: Compound concentration 1000.0 nM
[21] = molecular target: Serine/threonine-protein kinase PLK4 (Homo sapiens) (UniProt O00444); details: Compound concentration 1000.0 nM
[22] = molecular target: Mitogen-activated protein kinase 3 (Homo sapiens) (UniProt P27361); details: Compound concentration 1000.0 nM
[23] = molecular target: BMP-2-inducible protein kinase (Homo sapiens) (UniProt Q9NSY1); details: Compound concentration 1000.0 nM
[24] = molecular target: Cyclin-dependent kinase-like 1 (Homo sapiens) (UniProt Q00532); details: Compound concentration 1000.0 nM
[25] = system: Tyrosine-protein kinase ABL1 (Homo sapiens), P00519 [H396P]; details: Compound concentration 1000.0 nM
[26] = molecular target: Muscarinic acetylcholine receptor M5 (Homo sapiens) (UniProt P08912); details: Compound concentration 10.0 uM
[27] = system: Phosphatidylinositol 4,5-bisphosphate 3-kinase catalytic subunit alpha isoform (Homo sapiens), P42336 [E545K]; details: Compound concentration 1000.0 nM
[28] = molecular target: Serine/threonine-protein kinase PRP4 homolog (Homo sapiens) (UniProt Q13523); details: Compound concentration 1000.0 nM
[29] = system: Phosphatidylinositol 4,5-bisphosphate 3-kinase catalytic subunit alpha isoform (Homo sapiens), P42336 [H1047L]; details: Compound concentration 1000.0 nM
[30] = molecular target: NUAK family SNF1-like kinase 2 (Homo sapiens) (UniProt Q9H093); details: Compound concentration 1000.0 nM
[31] = system: Tyrosine-protein kinase ABL1 (Homo sapiens), P00519 [E255K]; details: Compound concentration 1000.0 nM
[32] = molecular target: Dual specificity mitogen-activated protein kinase kinase 7 (Homo sapiens) (UniProt O14733); details: Compound concentration 1000.0 nM
[33] = system: Tyrosine-protein kinase ABL1 (Homo sapiens), P00519 [F317I]; details: Compound concentration 1000.0 nM
[34] = molecular target: Cyclin-dependent kinase 7 (Homo sapiens) (UniProt P50613); details: Compound concentration 1000.0 nM
[35] = molecular target: Dual specificity mitogen-activated protein kinase kinase 1 (Homo sapiens) (UniProt Q02750); details: Compound concentration 1000.0 nM
[36] = molecular target: Serine/threonine-protein kinase ULK3 (Homo sapiens) (UniProt Q6PHR2); details: Compound concentration 1000.0 nM
[37] = molecular target: Serine/threonine-protein kinase PLK1 (Homo sapiens) (UniProt P53350); details: Compound concentration 1000.0 nM

Sequence of Tyrosine-protein kinase Lck (Homo sapiens) (P06239 2-509 limits assumed): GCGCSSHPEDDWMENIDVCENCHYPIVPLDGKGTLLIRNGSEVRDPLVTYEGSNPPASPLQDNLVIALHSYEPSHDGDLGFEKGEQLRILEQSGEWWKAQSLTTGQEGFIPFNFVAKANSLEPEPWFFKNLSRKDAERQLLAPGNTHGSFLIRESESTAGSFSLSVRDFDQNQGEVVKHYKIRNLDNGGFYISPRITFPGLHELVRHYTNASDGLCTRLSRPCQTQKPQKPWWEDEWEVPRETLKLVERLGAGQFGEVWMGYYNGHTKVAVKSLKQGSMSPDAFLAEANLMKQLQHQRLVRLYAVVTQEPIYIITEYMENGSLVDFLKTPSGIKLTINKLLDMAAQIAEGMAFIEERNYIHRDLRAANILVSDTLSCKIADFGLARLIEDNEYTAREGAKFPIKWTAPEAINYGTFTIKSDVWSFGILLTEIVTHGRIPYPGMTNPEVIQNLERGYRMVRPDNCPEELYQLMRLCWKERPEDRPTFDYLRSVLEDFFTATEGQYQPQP
Sequence of Phosphatidylinositol 4,5-bisphosphate 3-kinase catalytic subunit alpha isoform (Homo sapiens), P42336 [E545K] (P42336 whole entry E545K, canonical isoform): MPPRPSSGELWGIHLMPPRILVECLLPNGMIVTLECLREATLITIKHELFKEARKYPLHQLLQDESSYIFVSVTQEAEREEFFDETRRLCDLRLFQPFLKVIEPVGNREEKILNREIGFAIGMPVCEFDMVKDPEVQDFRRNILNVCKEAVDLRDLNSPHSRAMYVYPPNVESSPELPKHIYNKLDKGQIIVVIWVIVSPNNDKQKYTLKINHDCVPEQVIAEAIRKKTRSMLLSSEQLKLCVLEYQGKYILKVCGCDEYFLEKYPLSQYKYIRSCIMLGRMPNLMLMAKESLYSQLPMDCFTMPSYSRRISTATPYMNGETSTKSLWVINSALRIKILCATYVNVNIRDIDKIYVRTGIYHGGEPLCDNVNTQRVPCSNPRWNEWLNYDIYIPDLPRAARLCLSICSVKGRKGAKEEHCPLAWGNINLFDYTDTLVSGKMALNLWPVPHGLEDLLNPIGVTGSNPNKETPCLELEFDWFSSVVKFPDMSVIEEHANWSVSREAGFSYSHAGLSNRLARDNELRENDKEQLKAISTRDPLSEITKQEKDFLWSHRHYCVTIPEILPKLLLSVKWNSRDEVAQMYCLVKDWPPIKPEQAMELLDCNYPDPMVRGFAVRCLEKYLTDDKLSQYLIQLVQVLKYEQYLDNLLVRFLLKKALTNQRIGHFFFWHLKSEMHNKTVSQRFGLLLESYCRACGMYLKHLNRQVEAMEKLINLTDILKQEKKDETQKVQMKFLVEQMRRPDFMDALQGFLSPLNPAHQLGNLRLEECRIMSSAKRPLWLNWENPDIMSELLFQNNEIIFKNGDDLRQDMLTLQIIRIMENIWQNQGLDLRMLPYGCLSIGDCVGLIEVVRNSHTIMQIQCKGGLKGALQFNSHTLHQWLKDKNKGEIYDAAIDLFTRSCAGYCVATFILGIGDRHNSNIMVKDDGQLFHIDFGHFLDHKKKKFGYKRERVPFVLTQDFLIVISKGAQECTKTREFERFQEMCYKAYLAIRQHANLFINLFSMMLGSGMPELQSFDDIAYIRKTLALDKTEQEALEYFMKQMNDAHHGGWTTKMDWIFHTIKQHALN
Sequence of Ephrin type-A receptor 4 (Homo sapiens) (P54764 whole entry): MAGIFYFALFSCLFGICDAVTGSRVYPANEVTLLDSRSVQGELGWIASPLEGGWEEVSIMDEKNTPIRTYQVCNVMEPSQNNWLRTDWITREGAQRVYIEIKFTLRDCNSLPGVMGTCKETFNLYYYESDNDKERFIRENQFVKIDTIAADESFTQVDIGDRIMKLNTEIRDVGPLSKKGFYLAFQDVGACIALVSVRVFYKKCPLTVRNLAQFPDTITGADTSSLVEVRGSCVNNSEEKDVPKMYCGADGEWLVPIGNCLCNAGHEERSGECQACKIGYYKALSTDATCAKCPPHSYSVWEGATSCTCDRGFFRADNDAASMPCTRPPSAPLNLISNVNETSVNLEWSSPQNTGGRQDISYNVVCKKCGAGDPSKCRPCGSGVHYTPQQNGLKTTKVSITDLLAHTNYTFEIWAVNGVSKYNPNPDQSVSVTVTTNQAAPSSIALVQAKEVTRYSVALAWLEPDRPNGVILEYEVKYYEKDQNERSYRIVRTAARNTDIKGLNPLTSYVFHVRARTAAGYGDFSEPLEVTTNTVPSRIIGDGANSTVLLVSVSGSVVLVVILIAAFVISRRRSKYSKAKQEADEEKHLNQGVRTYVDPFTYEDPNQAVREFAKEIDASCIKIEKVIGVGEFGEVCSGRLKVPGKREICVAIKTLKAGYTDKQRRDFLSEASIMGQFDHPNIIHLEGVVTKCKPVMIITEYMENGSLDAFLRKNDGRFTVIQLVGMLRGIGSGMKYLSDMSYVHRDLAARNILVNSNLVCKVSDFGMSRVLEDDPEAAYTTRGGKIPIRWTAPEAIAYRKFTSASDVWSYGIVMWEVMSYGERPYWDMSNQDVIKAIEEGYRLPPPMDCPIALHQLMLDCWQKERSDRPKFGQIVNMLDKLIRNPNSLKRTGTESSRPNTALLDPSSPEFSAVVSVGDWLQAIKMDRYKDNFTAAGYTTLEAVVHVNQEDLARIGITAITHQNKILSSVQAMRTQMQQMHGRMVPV
Sequence of Serine/threonine-protein kinase PLK4 (Homo sapiens) (O00444 whole entry): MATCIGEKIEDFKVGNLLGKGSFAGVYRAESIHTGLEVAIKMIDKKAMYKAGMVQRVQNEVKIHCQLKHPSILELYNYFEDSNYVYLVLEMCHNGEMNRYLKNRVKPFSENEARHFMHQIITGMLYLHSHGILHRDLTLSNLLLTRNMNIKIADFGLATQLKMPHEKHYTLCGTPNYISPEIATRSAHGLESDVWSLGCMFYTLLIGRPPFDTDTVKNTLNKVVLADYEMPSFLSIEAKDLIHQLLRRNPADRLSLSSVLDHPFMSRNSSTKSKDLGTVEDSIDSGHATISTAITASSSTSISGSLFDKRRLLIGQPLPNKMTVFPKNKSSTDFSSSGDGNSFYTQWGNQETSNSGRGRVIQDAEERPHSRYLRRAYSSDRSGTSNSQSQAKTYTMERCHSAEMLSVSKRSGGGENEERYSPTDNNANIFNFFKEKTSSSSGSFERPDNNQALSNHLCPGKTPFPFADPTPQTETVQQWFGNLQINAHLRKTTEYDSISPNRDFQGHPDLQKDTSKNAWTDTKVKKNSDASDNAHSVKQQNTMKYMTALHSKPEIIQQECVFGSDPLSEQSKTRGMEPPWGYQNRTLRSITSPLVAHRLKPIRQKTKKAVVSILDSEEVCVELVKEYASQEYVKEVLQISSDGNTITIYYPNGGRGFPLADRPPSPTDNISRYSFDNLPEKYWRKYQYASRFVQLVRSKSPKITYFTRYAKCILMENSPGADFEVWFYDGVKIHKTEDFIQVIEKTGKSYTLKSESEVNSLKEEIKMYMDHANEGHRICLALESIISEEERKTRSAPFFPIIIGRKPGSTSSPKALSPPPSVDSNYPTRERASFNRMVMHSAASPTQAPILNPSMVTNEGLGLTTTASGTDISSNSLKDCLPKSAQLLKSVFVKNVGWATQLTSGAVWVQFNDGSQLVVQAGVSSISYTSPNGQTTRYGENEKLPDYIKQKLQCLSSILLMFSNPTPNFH
Sequence of Epithelial discoidin domain-containing receptor 1 (Homo sapiens) (Q08345 whole entry, the tested form may be a part): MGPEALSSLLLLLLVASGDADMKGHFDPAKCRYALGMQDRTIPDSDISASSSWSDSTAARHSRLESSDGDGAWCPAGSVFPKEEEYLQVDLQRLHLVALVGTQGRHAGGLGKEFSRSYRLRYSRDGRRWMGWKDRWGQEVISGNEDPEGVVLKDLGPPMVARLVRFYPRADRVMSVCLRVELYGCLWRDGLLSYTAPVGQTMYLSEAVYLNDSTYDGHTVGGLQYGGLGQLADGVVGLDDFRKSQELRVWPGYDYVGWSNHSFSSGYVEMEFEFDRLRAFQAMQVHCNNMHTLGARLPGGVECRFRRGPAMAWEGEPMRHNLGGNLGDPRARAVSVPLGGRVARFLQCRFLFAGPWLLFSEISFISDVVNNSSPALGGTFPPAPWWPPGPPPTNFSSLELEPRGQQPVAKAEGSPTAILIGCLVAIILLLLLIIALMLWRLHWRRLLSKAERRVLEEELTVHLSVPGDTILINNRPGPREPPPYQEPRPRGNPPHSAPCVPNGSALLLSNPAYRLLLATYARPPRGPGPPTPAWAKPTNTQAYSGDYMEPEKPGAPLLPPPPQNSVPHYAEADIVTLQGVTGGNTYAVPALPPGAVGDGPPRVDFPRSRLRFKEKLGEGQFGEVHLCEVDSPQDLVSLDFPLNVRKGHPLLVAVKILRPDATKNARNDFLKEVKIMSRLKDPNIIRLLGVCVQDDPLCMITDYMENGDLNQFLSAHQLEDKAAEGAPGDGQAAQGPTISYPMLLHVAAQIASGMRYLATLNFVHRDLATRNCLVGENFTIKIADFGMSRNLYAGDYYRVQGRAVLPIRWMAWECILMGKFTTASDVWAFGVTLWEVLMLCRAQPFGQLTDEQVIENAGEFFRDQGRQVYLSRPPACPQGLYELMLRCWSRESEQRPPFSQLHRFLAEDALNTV
Sequence of Casein kinase I isoform gamma-2 (Homo sapiens) (P78368 whole entry, looked up, canonical isoform): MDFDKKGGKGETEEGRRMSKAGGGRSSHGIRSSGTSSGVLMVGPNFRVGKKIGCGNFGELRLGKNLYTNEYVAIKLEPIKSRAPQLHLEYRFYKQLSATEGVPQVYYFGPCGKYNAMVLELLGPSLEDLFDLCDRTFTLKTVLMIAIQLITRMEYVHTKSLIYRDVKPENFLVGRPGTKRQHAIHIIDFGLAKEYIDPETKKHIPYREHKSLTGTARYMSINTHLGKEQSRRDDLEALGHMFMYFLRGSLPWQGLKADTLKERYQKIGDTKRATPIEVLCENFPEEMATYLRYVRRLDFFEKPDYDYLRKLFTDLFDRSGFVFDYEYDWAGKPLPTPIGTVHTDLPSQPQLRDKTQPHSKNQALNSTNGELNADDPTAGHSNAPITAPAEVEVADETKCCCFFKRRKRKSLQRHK
Sequence of Phosphatidylinositol 4,5-bisphosphate 3-kinase catalytic subunit alpha isoform (Homo sapiens), P42336 [H1047L] (P42336 whole entry H1047L, canonical isoform): as the sequence (P42336 whole entry E545K, canonical isoform) above, with K545E, H1047L counted along it

Structure (SMILES)	residual activity [1] [%]	residual activity [2] [%]	residual activity [3] [%]	residual activity [4] [%]	residual activity [5] [%]	residual activity [6] [%]	residual activity [7] [%]	inhibition [8] [%]	residual activity [9] [%]	residual activity [10] [%]	residual activity [11] [%]	residual activity [12] [%]	residual activity [13] [%]	inhibition (Rattus norvegicus) [%]	residual activity [14] [%]	residual activity [15] [%]	residual activity [16] [%]	residual activity [17] [%]	residual activity [18] [%]	residual activity [19] [%]	further results
NS(=O)(=O)c1cc(NC(=O)C2(c3ccccc3Cl)CC2)ccc1Oc1cccc(Cl)c1 [BAY-207]	100	62	100	82	82	100	70	2.03	89	64	100	80	79	87.5	100	100	83	80	89	70	residual activity [20]: 100%; residual activity [21]: 87%; residual activity [22]: 76%; residual activity [23]: 74%; residual activity [24]: 99%; residual activity [25]: 93%; inhibition [26]: 14.7%; residual activity [27]: 96%; residual activity [28]: 68%; residual activity [29]: 98%; residual activity [30]: 80%; residual activity [31]: 72%; residual activity [32]: 100%; residual activity [33]: 96%; residual activity [34]: 82%; residual activity [35]: 88%; residual activity [36]: 83%; residual activity [37]: 92%
NS(=O)(=O)c1cc(NC(=O)Cc2ccccc2)ccc1Oc1cccc(Cl)c1 [BAY-1797]	88	100	97	61	100	100	78	-8.33	100	92	84	100	100	5.06	100	80	94	70	91	69	residual activity [20]: 79%; residual activity [21]: 92%; residual activity [22]: 94%; residual activity [23]: 94%; residual activity [24]: 98%; residual activity [25]: 73%; inhibition [26]: 16.7%; residual activity [27]: 77%; residual activity [28]: 97%; residual activity [29]: 96%; residual activity [30]: 91%; residual activity [31]: 69%; residual activity [32]: 91%; residual activity [33]: 51%; residual activity [34]: 64%; residual activity [35]: 97%; residual activity [36]: 74%; residual activity [37]: 73%
